Data: publication PMC9401007, “Advances towards Cell‐Specific Gene Transfection: A Small‐Molecule Approach Allows Order‐of‐Magnitude Selectivity” (Chemistry (Weinheim an Der Bergstrasse, Germany), 2022)

How the values were obtained:
HeLa cells [1] = experiment: MTS-based cell-viability assay (CellTiter 96 AQueous One Solution Cell Proliferation Assay); details: 5 h incubation with plasmid DNA 1 µg/ml
Method: (§1) The development of vector 1 is illustrated in Table 1. In order to assess structure–activity relationships (SAR), we analyzed the minimal concentration needed to achieve transfection in steps of 100 μM, the toxicological profile and the transfection efficiency. To get swift access to toxicity data for SAR analysis, the compounds listed in Table 1 were evaluated in an MTS‐based cell‐viability assay, and transfection efficiencies were analyzed by CellProfiler® on HeLa cells (see the Supporting Information for details).[18] […] Amide formation on the N terminus reduced the net charge by 1, and acetylation at this position led to an increased concentration needed for successful transfection (Table 1, Entry B). Finally, the descent in transfection efficiency to 5.9 % highlights the relevance of a fifth positive charge.[19] Apparently, this reduction of positive charges impedes DNA condensation and must be compensated for.
4. Biological experiments
Determination of the toxicity of the compounds was performed using the colorimetric CellTiter 96® AQueous One Solution Cell Proliferation Assay (Promega). […] Absorbance at 490 nm was measured using a GloMax-multi plate reader (Promega). […]

HeLa cells [2] = experiment: Transfection of pH2B-mCherry plasmid, microscopy with CellProfiler readout; format: cell-based
Method: as §1
4.2 Transfection and Microscopy
Cells were seeded in a 96-well plate from (Greiner bio-one) 24 h prior to experiments at a confluence of 1x104 in 100 µL of culture growth medium and grown at 37.0 °C, 5% CO2 atmosphere and 95% relative humidity. The vector was dissolved in DMSO. 0.100 µg of DNA were diluted with DB-PBS and an appropriate amount of vector solution added resulting in a total volume of 30 µL. This solution was incubated for 20 min at rt. Afterwards 30.0 µL of culture growth medium was replaced by vector/DNA mixture. All precipitate which had formed during the incubation process was added to the well. After 5 h of incubation the cells were washed with warm DB-PBS buffer (2x100 µL per well) before incubating the cells for 24h at 37.0 °C, 5% CO2 atmosphere and 95% relative humidity. After 24 h the cells were examined under the microscope.
Figure S4. Representative microscopy images of HEK293t, HeLa, CHO, A549 and HCT116 cells 24 h after transfection with 1 (150 µM) with pH2B-mCherry.
Scale bar represents 200 µm. […]
4.3 Quantification of Transfection Results
For quantification of transfection efficiencies, cells were transfected with the pH2B-mCherry plasmid using the different compounds at the described concentrations and stained with DAPI. […] The transfection efficiency was calculated using CellProfiler™.[7] […] Next, the fluorescence intensity in the red channel (Ex = 555 nm; Em > 590 nm) was measured within the segmented nuclei and a threshold was applied.
The ratio between pH2B-mCherry positive nuclei and all nuclei (segmented by DAPI) was determined as transfection efficiency. […]
Figure S7. […] The pipeline recognizes Hoechst-stained nuclei and measures the intensity of the fluorescent reporter protein within the previously calculated nuclei boundaries. […]

## tetralysine-guanidinocarbonylpyrrol
HeLa cells [1]; concentration range optimal for transfection (for entry A: at the minimal concentration 150 μM), absorbance 490 nm, normalised to DMSO control
  Toxicity (qualitative, MTS assay): low (Low=cell viability ≥70 %)
HeLa cells [1]; entry A at 300 μM (opt.)
  Toxicity (qualitative, MTS assay) at the optimal concentration: high (high=cell viability <70 %)
HeLa cells [2]; analysed in steps of 100 μM, pH2B-mCherry plasmid, 5 h incubation, examined after 24 h
  Conc.: minimal concentration needed to observe successful transfection during microscopy: 150 µM
HeLa cells [2]; at the (minimal) concentration printed in column Conc., fraction of pH2B-mCherry positive nuclei
  Efficiency: transfection efficiency by CellProfiler readout: 3.2%
HeLa cells [2]; at the concentration marked (opt.): A 300 μM, 1 150 μM
  Efficiency: transfection efficiency by CellProfiler readout at the optimal concentration: 48%
HeLa cells [2]; pH2B-mCherry plasmid
  Conc. (opt.): concentration of maximum transfection efficiency: 300 µM
